# Reference: PMC5430738, “Psiguajadials A–K: Unusual Psidium Meroterpenoids as Phosphodiesterase-4 Inhibitors from the Leaves of Psidium guajava” (Scientific Reports, 2017)
# Target: T1, PDE4D2 (Homo sapiens, UniProt Q08499)
# T1 construct: human PDE4D2 (catalytic domain, residues 86 –413); made in house; host or cells: E. coli BL21 (Codonplus)
# Assay: PDE4D2 enzymatic inhibition assay (3H-cAMP substrate)
# Assay type: biochemical
# Conditions: human PDE4D2 catalytic domain, 25 °C, 15 min, read-out: IC50 against PDE4D2
# Source text: The protocols for expression, purification, and enzymatic assays of PDE4D2 were similar to those we described previously. More details about the experimental procedures are provided in Supplementary S3.
# S3. Experimental section Extraction and isolation and PDE4D assay
# S3.1. Extraction and isolation […]
# S3.2. Expression and purification of PDE4D2 prot ein
# subcloned into the expression vector pET15b. All these resultant plasmids were transformed into E.
# coli strain BL21 (Codonplus) for over expression. The E. coli cells carrying these plasmids were
# grown in LB medium at 37 /g113C to OD600 = 0.7, and then 0.1 mM isopropyl
# /g69-D-thiogalactop yranoside was added for further growth at 16 /g113C for 20–40 h. The recombinant
# protein was purified by Ni-NTA column (Qiagen).
# The enz ymatic activities of PDE4D cat al ytic domain and the inhibition of PDE4D by extracted
# reactions were occured in mixture containing 50 mM Tris/HCl (pH 7.5), 10 mM MgCl2, 0.5 mM
# DTT at room temperature (25 /g113C) for 15 min. The reactions were terminated by addition of 0.2 M
# Zn S O 4 and Ba(OH)2. The reaction product 3H-AMP was precipitated out, while unreacted
# 3H-cAMP remained in the supernatant. The mechanism was illustrated as shown below (Scheme
# S3.2). Radioactivity in the supernatant was measured in 2.5 mL Ultima Gold liquid scintillation
# repeated at least three times. The IC 50 values were calculated by nonlinear regression. As a […]
# T1 sequence (Q08499 388-715): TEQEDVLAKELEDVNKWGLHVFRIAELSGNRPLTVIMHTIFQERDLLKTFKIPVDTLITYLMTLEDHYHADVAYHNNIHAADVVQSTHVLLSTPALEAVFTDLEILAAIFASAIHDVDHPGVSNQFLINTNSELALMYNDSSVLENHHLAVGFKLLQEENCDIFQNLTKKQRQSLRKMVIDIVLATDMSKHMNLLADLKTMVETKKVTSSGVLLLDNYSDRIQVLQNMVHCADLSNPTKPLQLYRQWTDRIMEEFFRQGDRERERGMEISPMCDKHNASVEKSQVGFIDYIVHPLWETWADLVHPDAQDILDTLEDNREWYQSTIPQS
row,SMILES,IC50
1,"C=C1CCC2Cc3c(O)c(C=O)c(O)c(C(=O)c4ccccc4)c3OC2(C)CCC2C1CC2(C)C (stereo not shown) [Compound 4, Psiguajadial D]",4140 ± 260 nM
2,"CC1=CCCC2(C)C(c3ccccc3)c3c(O)c(C=O)c(O)c(C=O)c3OC2C2C(CC1)C2(C)C (stereo not shown) [Compound 5, Psiguajadial E]",3250 ± 200 nM
3,"CC1(C)C2CCC3(CC(c4ccccc4)c4c(O)c(C=O)c(O)c(C=O)c4O3)C1C2 (stereo not shown) [Compound 28, guadial C]",17100 ± 960 nM
4,"CC(C)C12CCC3(CC(c4ccccc4)c4c(O)c(C=O)c(O)c(C=O)c4O3)C1C2 (stereo not shown) [Compound 11, Psiguajadial K]",3680 ± 270 nM
5,"CC(C)C1CCC(C)C23CC4C(c5ccccc5)c5c(O)c(C=O)c(O)c(C=O)c5OC4(C)C2C13 (stereo not shown) [Compound 2, Psiguajadial B]",5030 ± 330 nM
6,"CC1=CCC(C)(C)C=CCC2(C)Oc3c(C=O)c(O)c(C=O)c(O)c3C(c3ccccc3)C2CC1 (single isomer, unassigned; (-)) [Compound 14, (−)-guajadial B]",> 50000 nM
7,"CC1(C)C2CC3C(c4ccccc4)c4c(O)c(C=O)c(O)c(C=O)c4OC3(C)C1C2 (stereo not shown) [Compound 27, guadial B]",> 50000 nM
8,"CC1=C2C3CC(C)(C(c4ccccc4)c4c(O)c(C=O)c(O)c(C=O)c4O3)C2C2C(CC1)C2(C)C (stereo not shown) [Compound 3, Psiguajadial C]",4500 ± 280 nM
9,"C=C1CCC2Cc3c(O)c(C(=O)c4ccccc4)c(O)c(C=O)c3OC2(C)CCC2C1CC2(C)C (stereo not shown) [Compound 17, guapsidial A]",5610 ± 510 nM
10,"CC1=CCCC2(C)C(c3ccccc3)c3c(O)c(C=O)c(O)c(C=O)c3OC2C2C(CC1)C2(C)C (stereo not shown) [Compound 13, psiguadial D]",3420 ± 210 nM
11,"CC(C)C1CCC(C)C2CC3C(c4ccccc4)c4c(O)c(C=O)c(O)c(C=O)c4OC3(C)C=C12 (stereo not shown) [Compound 23, Guajadial E]",2730 ± 150 nM
12,"CC1=CCC(C)(C)C=CCC2(C)Oc3c(C=O)c(O)c(C=O)c(O)c3C(c3ccccc3)C2CC1 (single isomer, unassigned; (+)) [Compound 15, (+)-guajadial B]",> 50000 nM
13,"CC1CCC2C(C3C4(C)CCC13Oc1c(C=O)c(O)c(C=O)c(O)c1C4c1ccccc1)C2(C)C (stereo not shown) [Compound 16, psiguadial A]",7260 ± 410 nM
14,"CC1=CCCC2(C)Oc3c(C=O)c(O)c(C=O)c(O)c3C(c3ccccc3)C2C2C(CC1)C2(C)C (stereo not shown) [Compound 12, Guajavadial C]",4330 ± 210 nM
15,"CC(C)C1CCC(C)C23CCC4(CC(c5ccccc5)c5c(O)c(C=O)c(O)c(C=O)c5O4)C2C13 (stereo not shown) [Compound 1, Psiguajadial A]",3110 ± 100 nM

# The remaining lines, values ahead:
row,IC50,SMILES
1,1620 ± 80 nM,"C=C1CCC2C(c3ccccc3)c3c(O)c(C=O)c(O)c(C=O)c3OC2(C)CCC2C1CC2(C)C (stereo not shown) [Compound 19, guajadial]"
2,1340 ± 330 nM,"C=C1CCC2C(c3ccccc3)c3c(O)c(C=O)c(O)c(C=O)c3OC2(C)CCC2C1CC2(C)C (stereo not shown) [Compound 7, Psiguajadial G]"
3,2010 ± 70 nM,"CC(C)C12CC3C(c4ccccc4)c4c(O)c(C=O)c(O)c(C=O)c4OC3(C)C1C2 (stereo not shown) [Compound 25, guajavadial A]"
4,1600 ± 90 nM,"C=C1CCC2C(c3ccccc3)c3c(O)c(C=O)c(O)c(C=O)c3OC2(C)CCC2C1CC2(C)C (stereo not shown) [Compound 18, psidial A]"
5,1370 ± 70 nM,"C=C1CCC2C(c3ccccc3)c3c(O)c(C=O)c(O)c(C=O)c3OC2(C)CCC2C1CC2(C)C (stereo not shown) [Compound 20, psiguajadial L]"
6,1810 ± 90 nM,"CC(C)C1CCC(C)C2CCC3(C=C12)CC(c1ccccc1)c1c(O)c(C=O)c(O)c(C=O)c1O3 (stereo not shown) [Compound 8, Psiguajadial H]"
7,2510 ± 170 nM,"CC(C)C1CCC(C)C2CCC3(C=C12)CC(c1ccccc1)c1c(O)c(C=O)c(O)c(C=O)c1O3 (stereo not shown) [Compound 9, Psiguajadial I]"
8,2670 ± 170 nM,"CC(C)C1CCC(C)C2CC3C(c4ccccc4)c4c(O)c(C=O)c(O)c(C=O)c4OC3(C)C=C12 (stereo not shown) [Compound 24, Guajadial F]"
9,2280 ± 110 nM,"CC(C)C1CCC(C)C2CCC3(C=C12)CC(c1ccccc1)c1c(O)c(C=O)c(O)c(C=O)c1O3 (stereo not shown) [Compound 21, Guajadial C]"
10,2630 ± 130 nM,"CC1(C)CC2C1CCC13CC2(C)CCC1C(c1ccccc1)c1c(O)c(C=O)c(O)c(C=O)c1O3 (stereo not shown) [Compound 6, Psiguajadial F]"
11,1930 ± 110 nM,"CC(C)C1CCC(C)C2CCC3(C=C12)CC(c1ccccc1)c1c(O)c(C=O)c(O)c(C=O)c1O3 (stereo not shown) [Compound 22, Guajadial D]"
12,2530 ± 330 nM,"CC(C)C1CCC(C)C2CC3C(c4ccccc4)c4c(O)c(C=O)c(O)c(C=O)c4OC3(C)C=C12 (stereo not shown) [Compound 10, Psiguajadial J]"
13,2700 ± 150 nM,"CC(C)C12CCC3(CC(c4ccccc4)c4c(O)c(C=O)c(O)c(C=O)c4O3)C1C2 (stereo not shown) [Compound 26, guadial A]"
